Measured values taken from patent US20070053941A1, “Vermin repellent” (priority 2003, published 2007).

Experiments:
moles [1] = test: Field test: IMP vials buried in mole tunnels at a summer residence lawn (Example 1); format: in vivo, Talpa europaea
Description: Locality: A summer residence in Ängelholm in the south of Sweden.
Active substance: 100 μl 20% IMP in hexane in a sealed glass vial which was crushed at application in a mole tunnel.

moles [2] = test: Garden test: fenced-in 100 square meter zone treated with IMP versus untreated control area (Example 2); format: in vivo, Talpa europaea
Description: In a garden with an area of 700 square meters with notable mole activity, a zone with an area of 100 square meters was fenced in and treated with IMP under very favourable conditions.

COc1nccnc1C(C)C [IMP, 2-isopropyl-3-methoxy-pyrazine]
Repelling effect on moles (comment on the observations) (moles [1]; Example 1, overall conclusion): has a repelling effect on moles
Observed effect: mole hills (moles [1]; January 2003, migration back after treatment in June): about 10 mole hills
Observed effect: new mole hills in direction from the vials (moles [1]; June 15, after 2 vials buried June 11 and 3 vials June 14 (100 μl 20% IMP in hexane each), about 20 mole hills at beginning of June): 4 new mole hills in direction
Observed effect: new mole hills (moles [1]; June 19, after 5 vials buried): 2 new mole hills
Behaviour of moles in the treated area (moles [2]; Example 2, overall conclusion): decidedly disturbed
Mole hills observed in the treated area (moles [2]; after 4 days, 10 from the start, untreated control area 10 as compared with 6 from the start): 21 mole hills
